According to patent publication US20140314697A1, “Method for Inhibiting Inflammation and Reducing Melanophilin Expression with Glycine Derivatives And the Composition Thereof” (CORUM INC., priority 2013, published 2014):

Columns and labels:
[1] = test system: Mlph (melanophilin) protein in B16-F10 cells; experiment: Reduction of melanophilin expression on translational level (western blot); assay type: cell-based, Murine; details: B16-F10 w/FSK; for Mlph protein expression level, Average / Mlph protein expression level, Entry 1 / Mlph protein expression level, Entry 2 / Mlph protein expression level, Entry 3: about 48 hours, Positive Control 100%
Protocol: (§1) Murine melanoma cell line B16-F10 (BCRC No. 60031)
Complete Medium (as negative control): DMEM with 10% Fetal Bovine Serum
Testing Medium (as positive control): 20 μM forskolin (FSK) in Complete Medium
(§2) a. Rinse the confluent B16-F10 cells with sterile D-PBS then trypsinize all cells and perform cell counting.
b. Seeding 2.5E+05 cells per 6-cm dish.
(§3) c. Incubate B16F10 cells at 37° C., 5% CO2 for about 24 hours.
d. Prepared 0.5%/0.25%/0.125% testing material in Testing Medium.
e. Discard the medium and add 3 mL controls and testing material into B16-F10 cells in 6-cm dish.
f. Incubate B16-F10 cells at 37° C., 5% CO2 for about 48 hour.
g. After incubating for about 48 hours, discard the supernatant and wash the B16-F10 cells with sterile D-PBS.
h. Mlph protein expression is measured by western blot. Western blot conditions: • Loading protein amount: 40 μg/well • Protein transfer by Semi-dry Transfer Apparatus • Immunoblot with Primary Ab (1:250 dilution) at 4° C. overnight • Incubate with secondary Ab (1:5000 dilution) at room temperature for 1 hour • Detection was performed with the ECL system • Relative quantification of protein expression was measured by IMAGEJ free software). β-actin was used as the internal control for normalization • Data Analysis: […]

[2] = test system: skin color (hyper pigmentation); experiment: Skin whitening test: skin color changes (L* value), Minolta chromameter; assay type: in vivo, human; details: for Hyper pigmentation Reduction - Skin Color Data, Max % Improvement / Hyper pigmentation Reduction - Skin Color Data, % Difference: 0.2% Ac-Gly-β-Ala sample; for Hyper pigmentation Reduction - Skin Color Data, % Difference: L* value
Protocol: In this example, the in-vivo skin test is finished by AMA Laboratories USA. The skin color changes are evaluated with Minolta chromameter color computer system. The Age spot photography is evaluated with Reverse Photo Engineering Quantitative Analysis.
In terms of skin color changes, the participants were women aged 25-48 years old, wherein nine of the participants were caucasian, and one was Asian. The participants were tested before (baseline), and after using 14, 28, 56 days with Minolta chromameter color computer system to perform the skin color change evaluation. And the samples used for the skin color change evaluation is 0.2% Ac-Gly-β-Ala.

[3] = test system: Mouse IL-6 secretion, RAW264.7; experiment: Mouse IL-6 production in Raw264.7 cells (ELISA); assay type: cell-based; details: for Mouse IL-6 Content, Average / Mouse IL-6 Content, Entry 2 / Mouse IL-6 Content, Entry 3 / Mouse IL-6 Content, Entry 1: Raw264.7, LPS & IFN-r, 24 hours, Positive Control 100%; for Mouse IL-6 Content, Entry 2: passage N + 3; for Mouse IL-6 Content, Entry 3: passage N + 6; for Mouse IL-6 Content, Entry 1: passage N + 7
Protocol: (§4) Murine macrophage cell line RAW264.7 (BCRC No. 60001)
(§5) Complete Medium (as negative control): DMEM medium with 10% Fetal Bovine Serum
(§6) Testing Medium (as positive control): 100 ng/mL LPS and 10 ng/mL IFN-r in Complete Medium
(§7) a. Rinse the confluent Raw264.7 cells with sterile D-PBS then trypsinize all cells and perform cell counting.
(§8) b. Dilute the cell density to 2E+05/mL and seed 0.1 mL cell liquid (equals to 2E+04 cells) each well in 96-well plate.
(§9) c. Incubate Raw264.7 cells at 37° C., 5% CO2 for about 24 hours.
(§10) d. Prepared 2× dosing solution of testing material in 2× Testing Medium (means w/ 200 ng/mL ? LPS&20 ng/mL ? IFN-r): 0.8%, 0.4%, 0.2%, 0.1% (Final testing material: 0.4%, 0.2%, 0.1%, 0.05%)
(§11) e. […] Add 100 μL controls and testing materials in different concentrations into Raw264.7 cells in 96 well plates. Controls/Test materials should be tested at least three wells.
(§12) f. Incubate Raw264.7 cells at 37° C., 5% CO2 for about 24 hours.
(§13) g. After incubating for about 24 hours, collect the supernatant of controls and testing materials.
(§14) h. Determine the IL-6/MIP-2 content of the supernatant by R&D ELISA kit as mentioned previously.

[4] = test system: Mlph (melanophilin) mRNA in B16-F10 cells; experiment: Reduction of melanophilin expression on transcriptional level (qPCR); assay type: cell-based, Murine
Protocol: as §1, §2
b. Seeding 2E+06 cells per 10-cm dish.
as §3
d. Prepared 0.5% testing material in Complete Medium.
e. Discard the medium and add 9 mL Complete Medium and 0.5% testing material into B16-F10 cells in 10-cm dish.
f. Incubate B16-F10 cells at 37° C., 5% CO2 for about 1 hour.
g. After incubating for about 1 hour, discard the supernatant and wash the B16-F10 cells with sterile D-PBS.
h. Add 3 mL Trizol to suspend cells and qPCR test by Welgene Biotech Co., Ltd (outsourcing test).

[5] = test system: Mouse MIP-2 secretion, RAW264.7; experiment: Mouse MIP-2 production in Raw264.7 cells (ELISA); assay type: cell-based; details: for Mouse MIP-2 Content, Average / Mouse MIP-2 Content, Entry 2 / Mouse MIP-2 Content, Entry 1 / Mouse MIP-2 Content, Entry 3: Raw264.7, LPS & IFN-r, 24 hours, Positive Control 100%; for Mouse MIP-2 Content, Entry 2: passage N + 3; for Mouse MIP-2 Content, Entry 1: passage N + 5; for Mouse MIP-2 Content, Entry 3: passage N + 6
Protocol: as §4, §5, §6, §7, §8, §9, §10, §11, §12, §13, §14

[6] = 0.5% Ac-Gly-β-Ala, B16-F10, about 1 hour, Control 100%

## CC(=O)NCC(=O)NCCC(=O)O [Ac-Gly-β-Ala, 3-(2-acetylamino-acetylamino)-propionic acid]
[1]; 0.125%
  Mlph protein expression level, Average: 71.3%
  Mlph protein expression level, Entry 1: 66.8%
  Mlph protein expression level, Entry 2: 65.7%
  Mlph protein expression level, Entry 3: 81.2%
[1]; 0.25%
  Mlph protein expression level, Average: 62.0%
  Mlph protein expression level, Entry 1: 49.4%
  Mlph protein expression level, Entry 2: 12.8%
  Mlph protein expression level, Entry 3: 123.8%
[1]; 0.5%
  Mlph protein expression level, Average: 24.3%
  Mlph protein expression level, Entry 1: 36.5%
  Mlph protein expression level, Entry 2: 10.6%
  Mlph protein expression level, Entry 3: 25.8%
[1]
  effect on Mlph in translational (protein) level: inhibitory effect
[2]; Day 14
  Hyper pigmentation Reduction - Skin Color Data, Max % Improvement: 62.84%
[2]; Day 14 vs baseline
  Hyper pigmentation Reduction - Skin Color Data, % Difference: 26.90%*
[2]; Day 28
  Hyper pigmentation Reduction - Skin Color Data, Max % Improvement: 87.34%
[2]; Day 28 vs baseline
  Hyper pigmentation Reduction - Skin Color Data, % Difference: 41.07%*
[2]; Day 56
  Hyper pigmentation Reduction - Skin Color Data, Max % Improvement: 87.97%
[2]; Day 56 vs baseline
  Hyper pigmentation Reduction - Skin Color Data, % Difference: 41.64%*
[2]; test sample with 0.2% Ac-Gly-β-Ala
  L* value of skin: can increase the L* value of skin
[3]; 0.05%-0.4%, Raw264.7
  IL-6 production, dose dependence: dose-dependently inhibited
[3]; 0.05%
  Mouse IL-6 Content, Average: 97%
  Mouse IL-6 Content, Entry 2: 105%
  Mouse IL-6 Content, Entry 3: 95%
  Mouse IL-6 Content, Entry 1: 91%
[3]; 0.10%
  Mouse IL-6 Content, Average: 86%
  Mouse IL-6 Content, Entry 2: 96%
  Mouse IL-6 Content, Entry 3: 78%
  Mouse IL-6 Content, Entry 1: 85%
[3]; 0.20%
  Mouse IL-6 Content, Average: 54%
  Mouse IL-6 Content, Entry 2: 58%
  Mouse IL-6 Content, Entry 3: 42%
  Mouse IL-6 Content, Entry 1: 64%
[3]; 0.40%
  Mouse IL-6 Content, Average: 34%
  Mouse IL-6 Content, Entry 2: 40%
  Mouse IL-6 Content, Entry 3: 40%
  Mouse IL-6 Content, Entry 1: 24%
[4]; [6]
  Mlph mRNA expression level, Average: 55%
  Mlph mRNA expression level, Entry 1: 80%
  Mlph mRNA expression level, Entry 2: 40%
  Mlph mRNA expression level, Entry 3: 46%
[4]; 0.5%, B16-F10
  effect on Mlph in transcriptional (mRNA) level: inhibitory effect
[5]; 0.05%-0.4%, Raw264.7
  MIP-2 production, dose dependence: inhibited MIP-2 production in dose-dependent manner
[5]; 0.05%
  Mouse MIP-2 Content, Average: 78%
  Mouse MIP-2 Content, Entry 2: 79%
  Mouse MIP-2 Content, Entry 1: 75%
  Mouse MIP-2 Content, Entry 3: 81%
[5]; 0.10%
  Mouse MIP-2 Content, Average: 65%
  Mouse MIP-2 Content, Entry 2: 66%
  Mouse MIP-2 Content, Entry 1: 64%
  Mouse MIP-2 Content, Entry 3: 65%
[5]; 0.20%
  Mouse MIP-2 Content, Average: 48%
  Mouse MIP-2 Content, Entry 2: 44%
  Mouse MIP-2 Content, Entry 1: 50%
  Mouse MIP-2 Content, Entry 3: 48%
[5]; 0.40%
  Mouse MIP-2 Content, Average: 31%
  Mouse MIP-2 Content, Entry 2: 32%
  Mouse MIP-2 Content, Entry 1: 21%
  Mouse MIP-2 Content, Entry 3: 38%
